Experimental data as given in US20210025110A1, “ORGANIC ANTIMICROBIAL TEXTILE” (Livinguard AG, priority 2018, published 2021).

How the values were obtained:
S. aureus ATCC 6538 = experiment: AATCC 100-2012 antimicrobial performance of treated textile, S. aureus; format: cell-based, Staphylococcus aureus
Experimental: (§1) Antimicrobial performance of antimicrobial textiles according to the invention were performed following the AATCC 100-2012 test method. The AATCC 100-2012 test procedure for antimicrobial performance is described in detail in AATCC Technical Manual 2013, p. 166-168. Briefly, 3 circular swatches of 48 mm diameter were prepared from autoclaved (121° C., 15 min) textile samples, and a defined number of swatches was added to a 250 ml Erlenmeyer flask. 1 ml of prepared inoculum (in phosphate buffered water) was spot onto the swatches. […] The 0 minute contact time was immediately analyzed after inoculation. For the other contact times, the Erlenmeyer flask was sealed immediately after inoculation and incubated at 37° C. for the respective contact times. After the defined contact time, 100 ml of Dey-Engley Neutralizing broth was added to each flask, and the flask was shaken for one minute by hand. A dilution series was prepared and each dilution sample was plated on a nutrient agar. Agar plates were incubated at 37° C. for 24 and 48 hours. The Log Reduction (R) of bacteria was calculated by: B[log(number bacteria recovered from the inoculated treated test specimen swatches in the jar immediately after inoculation, i.e. at 0 contact time)]−A[log(number of bacteria recovered from the inoculated treated test specimen swatches in the jar incubated over the desired contact period)].

E. coli = experiment: AATCC 100-2012 antimicrobial performance of treated textile, E. coli; format: cell-based
P. aeruginosa ATCC 9027 = experiment: AATCC 100-2012 antimicrobial performance of treated textile, P. aeruginosa; format: cell-based
Experimental: as §1

Structure (SMILES) | Log Reduction (R) after 1 hour, S. aureus (S. aureus ATCC 6538; Table 1, 100% viscose, L-arginine, 10 washes, 1 hour contact) | reduction of S. aureus after 1 hour (S. aureus ATCC 6538; Table 1 textiles, L-arginine on viscose, 1 hour) | reduction of E. coli after 24 hours (E. coli; Table 10, L-arginine 12% on cotton) [%] | Log Reduction (R) after 24 hours against E. coli, wash cycle 0 (unwashed) (E. coli; Table 10, 100% cotton, L-arginine 120 gpl, liquor pH per sample ID, unwashed, 24 hours) [Log cfu/ml] | Log Reduction (R) after 10 min, P. aeruginosa (P. aeruginosa ATCC 9027; Table 1, 100% viscose, L-arginine, 10 washes, 10 min contact) [Log cfu/ml] | reduction of P. aeruginosa after 10 minutes (P. aeruginosa ATCC 9027; Table 1 textiles, L-arginine on viscose, 10 min) [%] | Log Reduction (R) after 30 min, P. aeruginosa (P. aeruginosa ATCC 9027; Table 2, 100% viscose, L-carnitine, 0 or 10 washes per sample ID, 30 min contact) [Log cfu/ml] | reduction of P. aeruginosa after 30 minutes (P. aeruginosa ATCC 9027; Table 2 textiles, L-carnitine on viscose, 30 min) [%]
N=C(N)NCCC[C@H](N)C(=O)O [L-arginine] | about 1 Log cfu/ml | about 90% | > 99.99 | > 4.41 | 2.76 | > 99 |  | 
C[N+](C)(C)C[C@H](O)CC(=O)O [L-carnitine] |  |  |  |  |  |  | 2.82 | > 99
